Like-named read-outs stand apart in the source and are kept apart here.
Legend:
[1] = system: cucumber gray mold; assay: fungicidal activity in vitro (inhibition rate) against cucumber gray mold; assay type: cell-based; conditions: read-out: inhibition rate against cucumber gray mold
[2] = system: Diamond back moth; assay: insecticidal activity against diamond back moth, airbrush spray; assay type: in vivo; conditions: 72 h, 600 mg/L
Method in brief: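 Airbrush leaf-disc spray test: both faces of 2 cm cabbage discs received 0.5 ml of test solution at 0.7 kg/cm^2. Solutions were made in acetone:methanol (1:1) and brought to concentration with 0.1% Tween 80 in water. Ten second-instar larvae per disc, triplicates, were held at 25° C and 60˜70% R.H., with mortality recorded at 72 hrs.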

[3] = system: armyworm; assay: bioactivity test against armyworm, airbrush spray; assay type: in vivo; conditions: 72 h, read-out: Insecticidal activity against armyworm (%); for pest or weed control at 600 µg/mL: 600 mg/L; for pest or weed control at 10 µg/mL: 10 mg/L
[4] = system: Green peach aphids (Myzus Persicae Sulzer); assay: bioactivity test against green peach aphid, airbrush foliar spray; assay type: in vivo; conditions: Myzus persicae, foliar, 48 h, read-out: Insecticidal activity against peach aphid (%)
Method in brief: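 Aphids (15-30 per cabbage leaf disc) on moist filter paper were airbrush-sprayed at 10 psi, 0.5 mL, with compound from acetone:methanol (1:1) diluted in water with 0.1% tween 80. Held at 25±1 C, 60±5% RH; survivors counted after 48 hrs to give death rates.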

[5] = system: carmine spider mite; assay: bioactivity test against carmine spider mite, airbrush spray; assay type: in vivo; conditions: for pest or weed control at 600 µg/mL / pest or weed control at 10 µg/mL / pest or weed control at 100 µg/mL: Tetranychus cinnabarinus, 72 h, read-out: Insecticidal activity against carmine spider mite (% )
Method in brief: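 Broadbean seedlings infested with adult mites were sprayed with compound (acetone/methanol stock diluted in 0.1% Tween 80 water) by airbrush at 0.7 kg/cm^2, 0.5 ml. Three replicates were run. Mortality was scored after 72 hrs.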

[6] = system: corn rust; assay: protectant activity in vivo against corn rust; conditions: Zea mays, 168 h, protectant activity; for pest or weed control at 400 µg/mL: read-out: control effect against corn rust (%), 400 mg/L; for pest or weed control at 6.25 µg/mL: read-out: control effect against corn rust (%), 6.25 mg/L; for pest or weed control at 25 µg/mL: read-out: control effect against corn rust (%), 25 mg/L; for pest or weed control at 100 µg/mL: read-out: control effect against corn rust (%), 100 mg/L
[7] = system: wheat powdery mildew; assay: protectant activity in vivo against wheat powdery mildew; conditions: Triticum aestivum, 168 h, protectant activity; for pest or weed control at 400 µg/mL: read-out: control effect against wheat powdery mildew (%), 400 mg/L; for pest or weed control at 6.25 µg/mL: read-out: control effect against wheat powdery mildew (%), 6.25 mg/L; for pest or weed control at 25 µg/mL: read-out: control effect against wheat powdery mildew (%), 25 mg/L; for pest or weed control at 100 µg/mL: read-out: control effect against wheat powdery mildew (%), 100 mg/L
[8] = system: cucumber downy mildew; assay: protectant activity in vivo against cucumber downy mildew; conditions: Cucumis sativus, 168 h; for pest or weed control at 25 µg/mL: read-out: control effect against cucumber downy mildew (%), 25 mg/L; for pest or weed control at 50 µg/mL: read-out: control effect against cucumber downy mildew (%), 50 mg/L; for pest or weed control at 100 µg/mL: read-out: control effect against cucumber downy mildew (%), 100 mg/L
[9] = system: rice blast; assay: microbe, parasite or virus in culture; assay type: cell-based; conditions: Pyricularia oryzae, read-out: inhibition rate against rice blast, 25 ppm, in vitro
[10] = read-out: control effect against cucumber downy mildew (%), 400 mg/L, protectant activity

Structure (SMILES)	inhibition at 25 ppm ([1]; 25 ppm, in vitro)	pest or weed control at 600 µg/mL [2]	pest or weed control at 600 µg/mL [3]	pest or weed control at 600 µg/mL ([4]; 600 mg/L, contrastive test)	pest or weed control at 600 µg/mL ([5]; 600 mg/L, contrastive test)	pest or weed control at 400 µg/mL [6]	pest or weed control at 400 µg/mL [7]	pest or weed control at 25 µg/mL ([8]; protectant activity)	pest or weed control at 50 µg/mL ([8]; protectant activity)	pest or weed control at 100 µg/mL ([8]; protectant activity)	pest or weed control at 400 µg/mL [8, 10]	pest or weed control at 10 µg/mL ([4]; 10 mg/L, contrastive test)	pest or weed control at 6.25 µg/mL [6]	pest or weed control at 25 µg/mL [6]	pest or weed control at 100 µg/mL [6]	pest or weed control at 100 µg/mL [7]	pest or weed control at 100 µg/mL ([4]; 100 mg/L, contrastive test)	pest or weed control at 10 µg/mL ([5]; 10 mg/L, contrastive test)	pest or weed control at 100 µg/mL ([5]; 100 mg/L, contrastive test)	further results
CCc1ncnc(OCc2ccc(Oc3ccc(Cl)cc3)nc2)c1Cl [CK25, reference compound]	< 50%	0%	0%	0%	0%	0%	0%	0%	0%	0%	100%									
FC(F)(F)c1cccnc1Oc1ccc(CCNc2cc(Cl)nc(Cl)n2)cc1 [CK82, reference compound]	0%	17%	0%	86%	23%	100%	100%					0%	0%	0%	30%	80%				pest or weed control at 6.25 µg/mL [7]: 0%; pest or weed control at 25 µg/mL [7]: 0%
FC(F)(F)c1ccc(Oc2ccc(CCNc3ncnc(Cl)c3Cl)cc2)nc1 [CK73, reference compound]	0%		100%	100%	100%	100%	40%	60%	95%	98%	98%	0%	0%	10%	90%		100%	24%	85%	pest or weed control at 10 µg/mL [3]: 0%; pest or weed control at 100 µg/mL ([3]; 100 mg/L): 50%
CC(Cl)c1ncnc(NCCc2ccc(Oc3ccc(C(F)(F)F)cn3)cc2)c1Cl (stereo not shown) [CK24, reference compound]	< 50%			100%	100%	100%	0%					89%	0%	20%	50%	0%	100%	85%	100%	pest or weed control at 10 µg/mL [3]: 0%; pest or weed control at 2.5 µg/mL ([4]; 2.5 mg/L, contrastive test): 0%; pest or weed control at 5 µg/mL ([4]; 5 mg/L, contrastive test): 28%; Insecticidal activity against carmine spider mite (% ) ([5]; 2.5 mg/L): 5%; Insecticidal activity against carmine spider mite (% ) ([5]; 5 mg/L): 15%
CC(F)c1ncnc(NCCc2ccc(OC(F)(F)F)cc2)c1Cl (stereo not shown) [flufenerim, reference compound]																				inhibition at 25 ppm [1]: 0%; pest or weed control at 1.25 µg/mL [4]: 37%; pest or weed control at 2.5 µg/mL [4]: 90%; pest or weed control at 5 µg/mL [4]: 100%; pest or weed control at 10 µg/mL [4]: 100%; pest or weed control at 100 µg/mL [4]: 100%; pest or weed control at 600 µg/mL [4]: 100%; pest or weed control at 10 µg/mL [5]: 72%; pest or weed control at 100 µg/mL [5]: 100%; pest or weed control at 600 µg/mL [5]: 100%; pest or weed control at 400 µg/mL ([8]; read-out: control effect against cucumber downy mildew (%)): 0%
Cc1nc(Cl)cc(NCCc2ccc(Oc3ccc(C#N)cn3)cc2)n1 [CK84, reference compound]	0%	0%	0%	100%	100%	100%		85%	100%	100%	100%	7%	0%	60%	90%		43%	0%	0%	
Cc1ncnc(NCc2ccc(Oc3ccc(C(F)(F)F)cn3)cc2)c1Cl [CK22, reference compound]	0%	0%	0%	0%		100%	100%	60%	75%	98%	100%		0%	40%	100%	90%				pest or weed control at 6.25 µg/mL [7]: 0%; pest or weed control at 25 µg/mL [7]: 50%
N#Cc1ccc(Oc2ccc(CCNc3cc(Cl)ncn3)cc2)nc1 [CK83, reference compound]	0%	17%	29%	100%		30%	100%	85%	98%	100%	100%	11%				100%	100%			pest or weed control at 6.25 µg/mL [7]: 40%; pest or weed control at 25 µg/mL [7]: 70%
FC(F)(F)c1cccnc1Oc1ccc(CCNc2nc(Cl)ncc2Cl)cc1 [CK81, reference compound]	0%	0%	14%	75%	0%	80%	40%													
CCc1ncnc(NCc2ccc(Oc3ccc(C(F)(F)F)cc3)cc2)c1Cl [CK54, reference compound]	0%		67%	100%		100%		65%	80%	90%	100%	34%	0%	30%	60%		100%			
CC(Cl)c1ncnc(NCc2ccc(Oc3ccc(C(F)(F)F)cn3)cc2)c1Cl (stereo not shown) [CK43, reference compound]		0%	0%	0%	74%	85%	20%	0%	20%	40%	100%							16%	29%	inhibition at 25 ppm [9]: < 50%
CC(Cl)c1ncnc(NCCc2ccc(Oc3ccc(Cl)nn3)cc2)c1Cl (stereo not shown) [CK62, reference compound]	< 50%				0%						80%									
